# Experimental data taken from US20260209152A1, “Substituted Hydroxystilbene Compounds and Derivatives, Synthesis and Uses Thereof” (Kynan Duke IP, LLC, priority 2019, published 2026).
# Read-outs that look alike come from different tables or passages of the source.
# Legend:
# Assay in all cases: CellTiter Glo cell viability assay
# Format in all cases: cell-based, human
# Tongue SCC-15 = details: for IC50: Homo sapiens, SCC-15, 72 h, 3 Days of treatment, 18 2-fold dilutions 5-0.00003 μM
# Method in brief: (§1)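 Cells were seeded at 1.7*10^3 cells/well in quadruplicate and treated with 18 two-fold dilutions from 5 μM (0.000038146–5 μM), or with 1, 2, 5, 10 and 20 μM. Viability was read by CellTiter Glo luminescence on days 1, 3 and 5, and IC50 came from nonlinear regression of RLU against log dose.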
# Tongue SCC-25 = details: for IC50: Homo sapiens, SCC-25, 72 h, 3 Days of treatment, 18 2-fold dilutions 5-0.00003 μM
# Method in brief: as §1
# Rhabomyosarcoma Hs 729 = details: for IC50: Homo sapiens, 72 h, 3 Days of treatment, 18 2-fold dilutions 5-0.00003 μM
# Method in brief: as §1
# Kidney SK-NEP-1 = details: for IC50: Homo sapiens, SK-NEP-1, 72 h, 3 Days of treatment, 18 2-fold dilutions 5-0.00003 μM
# Method in brief: as §1
# Bladder RT-112 = details: for IC50: Homo sapiens
# Method in brief: as §1
# Osteosarcomas T1-73 = details: for IC50: Homo sapiens, 72 h, 3 Days of treatment, 18 2-fold dilutions 5-0.00003 μM
# Method in brief: as §1
# Breast MCF7 = details: for IC50: Homo sapiens, MCF7, 72 h, 3 Days of treatment, 18 2-fold dilutions 5-0.00003 μM
# Method in brief: as §1
# Bladder TCCSUP = details: for IC50: Homo sapiens, TCC-SUP, 72 h, 3 Days of treatment, 18 2-fold dilutions 5-0.00003 μM
# Method in brief: as §1
# Lung NCI-H1048 = details: for IC50: Homo sapiens, NCI-H1048, 72 h, 3 Days of treatment, 18 2-fold dilutions 5-0.00003 μM
# Method in brief: as §1
# Liver JHH-7 = details: for IC50: Homo sapiens, JHH7, 72 h, 3 Days of treatment, 18 2-fold dilutions 5-0.00003 μM
# Method in brief: as §1
# Lung A549 = details: for IC50: Homo sapiens, A549, 72 h, 3 Days of treatment, 18 2-fold dilutions 5-0.00003 μM
# Method in brief: as §1
# Kidney 786-O = details: for IC50: Homo sapiens, 786-0, 72 h, 3 Days of treatment, 18 2-fold dilutions 5-0.00003 μM
# Method in brief: as §1
# Breast MDA-MB-231 = details: for IC50: Homo sapiens
# Method in brief: as §1
# Pancreatic HPAC = details: for IC50: Homo sapiens, HPAC, 72 h, 3 Days of treatment, 18 2-fold dilutions 5-0.00003 μM
# Method in brief: as §1
# Leiomyosarcoma SK-LMS-1 = details: for IC50: Homo sapiens, SK-LMS-1, 72 h, 3 Days of treatment, 18 2-fold dilutions 5-0.00003 μM
# Method in brief: as §1
# [1] = test system: Connective Tissue Sarcoma TE 381.T; details: for IC50: Homo sapiens, TE 381.T, 72 h, 3 Days of treatment, 18 2-fold dilutions 5-0.00003 μM
# Method in brief: as §1
# Liver SNU-475 = details: for IC50: Homo sapiens, SNU-475, 72 h, 3 Days of treatment, 18 2-fold dilutions 5-0.00003 μM
# Method in brief: as §1
# Bladder SW780 = details: for IC50: Homo sapiens, SW780, 72 h, 3 Days of treatment, 18 2-fold dilutions 5-0.00003 μM
# Method in brief: as §1
# Kidney ACHN = details: for IC50: Homo sapiens, ACHN
# Method in brief: as §1
# Bladder J82 = details: for IC50: Homo sapiens, 72 h, 3 Days of treatment, 18 2-fold dilutions 5-0.00003 μM
# Method in brief: as §1
# [2] = RT-112, 72 h, 3 Days of treatment, 18 2-fold dilutions 5-0.00003 μM, read-out: Average IC50
# [3] = RT-112, 72 h, Table 4: 3 Days of treatment, 18 2-fold dilutions 5-0.00003 μM, Average (1, 8) or single Exp A-D, read-out: IC50
# [4] = RT-112, 120 h, Day 5 upon drug treatment, 10 dosages 0.0001-20 μM (Compound 8: 18 dosages 0.000038146 to 5 μM), read-out: IC50
# [5] = MDA-MB-231, 72 h, 3 Days of treatment, 18 2-fold dilutions 5-0.00003 μM, read-out: Average IC50
# [6] = MDA-MB-231, 120 h, Day 5 upon drug treatment, 10 dosages 0.0001-20 μM (Compound 8: 18 dosages 0.000038146 to 5 μM), read-out: IC50
# [7] = 72 h, 3 Days of treatment, 18 2-fold dilutions 5-0.00003 μM, read-out: Average IC50
# [8] = 72 h, Table 4: 3 Days of treatment, 18 2-fold dilutions 5-0.00003 μM, Average (1, 8) or single Exp A-D, read-out: IC50
# [9] = 120 h, Day 5 upon drug treatment, 10 dosages 0.0001-20 μM (Compound 8: 18 dosages 0.000038146 to 5 μM), read-out: IC50
# [10] = IC50 of 1 [KYN-001] vs 8 [KYN-119], 3 Days
smiles,measurement,setting,value
"COc1cc(/C=C/c2cc(O)cc(OC)c2CC=C(C)C)ccc1O [Compound 1, (E)-3-(4-hydroxy-3-methoxystyryl)-5-methoxy-4-(3-methylbut-2-en-1-yl)phenol]",IC50,Tongue SCC-15,17 nM
same,IC50,Tongue SCC-25,744 nM
same,IC50,Rhabomyosarcoma Hs 729,383 nM
same,IC50,Kidney SK-NEP-1,158 nM
same,IC50,Bladder RT-112; [2],52.9 nM
same,IC50,"Bladder RT-112; RT-112, 72 h, Day 3 upon drug treatment, 10 dosages 0.0001-20 μM, read-out: IC50",105 nM
same,IC50,Bladder RT-112; [3],27 nM
same,IC50,Bladder RT-112; [4],28.7 nM
same,IC50,Osteosarcomas T1-73,804 nM
same,IC50,Breast MCF7,694 nM
same,IC50,Bladder TCCSUP,294 nM
same,IC50,Lung NCI-H1048,91.7 nM
same,IC50,Liver JHH-7,696 nM
same,IC50,Lung A549,163 nM
same,IC50,Kidney 786-O,334 nM
same,IC50,Breast MDA-MB-231; [5],32.6 nM
same,IC50,"Breast MDA-MB-231; MDA-MB-231, 72 h, Day 3 upon drug treatment, 10 dosages 0.0001-20 μM, read-out: IC50",29.3 nM
same,IC50,Breast MDA-MB-231; [6],57.3 nM
same,IC50,Pancreatic HPAC,4990 nM
same,IC50,Leiomyosarcoma SK-LMS-1,65.9 nM
same,IC50,[1],35.7 nM
same,IC50,Liver SNU-475,239 nM
same,IC50,Bladder SW780,712 nM
same,IC50,Kidney ACHN; [7],494 nM
same,IC50,Kidney ACHN; [8],496 nM
same,IC50,Kidney ACHN; [9],89.7 nM
same,IC50,Bladder J82,184 nM
"CCOc1cc(O)cc(/C=C/c2ccc(O)c(OC)c2)c1CC=C(C)C [Compound 8, (E)-3-Ethoxy-5-(4-hydroxy-3-methoxystyryl)-4-(3-methylbut-2-en-1-yl)phenol]",IC50,Tongue SCC-15,14.9 nM
same,Fold IC50,Tongue SCC-15; [10],1.1
same,IC50,Tongue SCC-25,276 nM
same,Fold IC50,Tongue SCC-25; [10],2.7
same,IC50,Rhabomyosarcoma Hs 729,64.9 nM
same,Fold IC50,Rhabomyosarcoma Hs 729; [10],5.9
same,IC50,Kidney SK-NEP-1,17.8 nM
same,Fold IC50,Kidney SK-NEP-1; [10],8.9
same,IC50,Bladder RT-112; [2],3.63 nM
same,IC50,Bladder RT-112; [3],4.09 nM
same,IC50,Bladder RT-112; [4],~5.65 nM
same,Fold IC50,Bladder RT-112; [10],15
same,IC50,Osteosarcomas T1-73,3.93 nM
same,Fold IC50,Osteosarcomas T1-73; [10],205
same,IC50,Breast MCF7,136 nM
same,Fold IC50,Breast MCF7; [10],5.1
same,IC50,Bladder TCCSUP,112 nM
same,Fold IC50,Bladder TCCSUP; [10],2.6
same,IC50,Lung NCI-H1048,14.5 nM
same,Fold IC50,Lung NCI-H1048; [10],6.3
same,IC50,Liver JHH-7,519 nM
same,Fold IC50,Liver JHH-7; [10],1.3
same,IC50,Lung A549,30.9 nM
same,Fold IC50,Lung A549; [10],5.3
same,IC50,Kidney 786-O,64.8 nM
same,Fold IC50,Kidney 786-O; [10],5.1
same,IC50,Breast MDA-MB-231; [5],8.48 nM
same,IC50,Breast MDA-MB-231; [6],~0.00253 nM
same,Fold IC50,Breast MDA-MB-231; [10],3.8
same,IC50,Pancreatic HPAC,1970 nM
same,Fold IC50,Pancreatic HPAC; [10],2.5
same,IC50,Leiomyosarcoma SK-LMS-1,17.5 nM
same,Fold IC50,Leiomyosarcoma SK-LMS-1; [10],3.8
same,IC50,[1],7.5 nM
same,Fold IC50,[1]; [10],4.8
same,IC50,Liver SNU-475,32.4 nM
same,Fold IC50,Liver SNU-475; [10],7.4
same,IC50,Bladder SW780,217 nM
same,Fold IC50,Bladder SW780; [10],3.3
same,IC50,Kidney ACHN; [7],10.4 nM
same,IC50,Kidney ACHN; [8],9.8 nM
same,IC50,Kidney ACHN; [9],~0.0135 nM
same,Fold IC50,Kidney ACHN; [10],48
same,IC50,Bladder J82,46.5 nM
same,Fold IC50,Bladder J82; [10],4.0
